Values after ≈ are worked out from the molar mass of the structure shown. Like-named read-outs stand apart in the source and are kept apart here.
Columns and labels:
B. pseudomallei K96243 = test: microbe, parasite or virus in culture; assay type: cell-based; details: Burkholderia pseudomallei
[1] = mouse, in vivo
[2] = mouse, in vivo, po
F. tularensis SCHU-S4 [3] = test: microbe, parasite or virus in culture; assay type: cell-based; details: Francisella tularensis, SCHUS4
F. tularensis SCHU-S4 [4] = test: microbe, parasite or virus in culture; assay type: cell-based; details: Francisella tularensis, SCHUS4; remark: listed apart in the source
in vivo = details: female, Balb/c, mouse
[5] = mouse, in vivo, 50 mg/kg

O=C(O)c1cn(C2CC2)c2cc(N3CCNCC3)c(F)cc2c1=O [Free ciprofloxacin, ciprofloxacin]
MBC (B. pseudomallei K96243): 16 µg/mL (≈ 48.3 µM)
Effect on body weight [1]: significantly induced weight loss
Mean weight gain on Day 36 [2]: 2.4%
Mean weight loss of starting weight by Day 8 [2]: 4.4%

C[C@H]1c2cccc(O)c2C(=O)C2=C(O)[C@]3(O)C(=O)C(C(N)=O)=C(O)[C@@H](N(C)C)[C@@H]3[C@@H](O)[C@@H]21 [Free doxycycline, doxycycline hyclate]
MBC (F. tularensis SCHU-S4 [3]): > 64 µg/mL
Effect on body weight [1]: strong indication for doxycycline-based weight loss
Necropsy findings ([1]; ip): peritoneal adhesions involving spleen, pancreas, intestines and kidney
Necropsy findings ([1]; po): two mice had slightly rounded edges to the lobes of the liver
MIC (F. tularensis SCHU-S4 [4]): 0.5 µg/mL (≈ 1.13 µM)
Mean weight gain on Day 36 [2]: 1.7%
Mean weight loss of starting weight by Day 8 [2]: 5.2%

C[C@H]1COc2c(N3CCN(C)CC3)c(F)cc3c(=O)c(C(=O)O)cn1c23 [Free levofloxacin, levofloxacin]
Cmax (in vivo; ip, 50 mg/kg): 50200 ng/mL
Cmax (in vivo; ip, 100 mg/kg): 2100 ng/mL
Cmax (in vivo; po, 50 mg/kg): 46100 ng/mL
Effect on body weight [1]: minimal
AUC ([5]; ip): 122.1861 µg/mL/h
Tmax ([5]; ip): 18 min
AUC ([5]; po): 119.6124 µg/mL/h
Tmax ([5]; po): 36 min
Mean weight gain on Day 36 [2]: 3.2%
Mean weight loss of starting weight by Day 8 [2]: 3.3%

From patent US11524080B2 (priority 2018, dated 2022)
